What is called IC50 is the concentration that inhibits the measured activity by half.

In this test the target is ROCK2 (human) (UniProt O75116). Kind of test: Inhibition of ROCK2 Kinase Activity.

Molecules are shown by their SMILES.

ROCK2 (human), sequence (O75116 whole entry, looked up): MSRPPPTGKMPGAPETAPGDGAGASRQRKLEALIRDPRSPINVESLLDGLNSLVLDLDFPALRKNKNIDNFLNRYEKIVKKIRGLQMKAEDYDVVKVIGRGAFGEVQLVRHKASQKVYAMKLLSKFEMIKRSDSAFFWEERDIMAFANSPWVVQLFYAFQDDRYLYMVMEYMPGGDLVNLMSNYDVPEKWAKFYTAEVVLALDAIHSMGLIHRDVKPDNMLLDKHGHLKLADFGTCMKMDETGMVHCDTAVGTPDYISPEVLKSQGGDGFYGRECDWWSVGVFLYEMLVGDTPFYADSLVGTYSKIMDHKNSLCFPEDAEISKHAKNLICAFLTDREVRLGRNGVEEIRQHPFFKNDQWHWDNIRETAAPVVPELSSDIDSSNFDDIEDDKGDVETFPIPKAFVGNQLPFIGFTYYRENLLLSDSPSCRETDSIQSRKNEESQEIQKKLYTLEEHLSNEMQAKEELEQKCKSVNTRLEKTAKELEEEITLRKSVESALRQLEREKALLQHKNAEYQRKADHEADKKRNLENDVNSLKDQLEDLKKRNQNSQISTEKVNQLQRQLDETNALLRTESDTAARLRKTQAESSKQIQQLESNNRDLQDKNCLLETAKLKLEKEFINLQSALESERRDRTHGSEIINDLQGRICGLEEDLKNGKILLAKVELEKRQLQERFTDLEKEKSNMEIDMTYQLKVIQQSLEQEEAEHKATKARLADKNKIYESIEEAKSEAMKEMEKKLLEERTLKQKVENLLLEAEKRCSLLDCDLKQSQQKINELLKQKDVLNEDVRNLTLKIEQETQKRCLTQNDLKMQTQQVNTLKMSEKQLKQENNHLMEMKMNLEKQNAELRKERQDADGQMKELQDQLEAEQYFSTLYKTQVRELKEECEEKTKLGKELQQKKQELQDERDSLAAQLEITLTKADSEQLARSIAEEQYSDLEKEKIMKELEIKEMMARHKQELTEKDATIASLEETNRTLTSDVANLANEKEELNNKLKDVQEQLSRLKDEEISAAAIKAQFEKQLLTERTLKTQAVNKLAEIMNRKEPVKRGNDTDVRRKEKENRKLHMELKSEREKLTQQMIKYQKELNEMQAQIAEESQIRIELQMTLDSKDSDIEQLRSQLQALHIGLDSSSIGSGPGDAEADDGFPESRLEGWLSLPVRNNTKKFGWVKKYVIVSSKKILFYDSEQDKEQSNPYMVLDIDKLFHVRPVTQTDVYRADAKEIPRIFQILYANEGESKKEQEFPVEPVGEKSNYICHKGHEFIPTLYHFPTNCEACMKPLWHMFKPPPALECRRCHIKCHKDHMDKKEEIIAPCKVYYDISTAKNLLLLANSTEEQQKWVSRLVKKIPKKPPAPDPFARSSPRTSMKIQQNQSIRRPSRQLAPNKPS

As for `COc1ccccc1C=CC(=O)NCc1nc(-c2c[nH]c3ncccc23)n[nH]1`, the IC50 was above 5 µM. Regarding `O=C(NCc1nc(-c2ccncc2)n[nH]1)c1cccc(O)c1`, the IC50 is above 5 µM. For `CC(C)c1cc(C(=O)NCc2nc(-c3c[nH]c4ncccc34)n[nH]2)c(O)c(C(C)C)c1`, the half-maximal inhibitory concentration (IC50) is above 5 µM. For `CC(=O)c1ccc(C(=O)NCc2nc(-c3ccncc3)n[nH]2)cc1` the value was at most 5 µM. `O=C(CCc1ccccc1O)NCc1nc(-c2ccncc2)n[nH]1` showed an IC50 above 5 µM. Compound `CCCOc1ccc(C(=O)NCc2nc(-c3c[nH]c4ncccc34)n[nH]2)cc1` registered an IC50 above 5 µM. `CC(C)(C)OC(=O)N1CCCC1C(=O)NCc1nc(-c2ccncc2)n[nH]1` (stereo not drawn) yielded an IC50 above 5 µM. Take `O=C(NCc1nc(-c2ccncc2)n[nH]1)c1cccc(F)c1F`: the IC50 is above 5 µM. `O=C(NCc1nc(-c2c[nH]c3ncccc23)n[nH]1)c1ccc(OCc2ccccc2)cc1` yielded an IC50 above 5 µM. Regarding `COc1ccc(C(=O)NCc2nc(-c3c[nH]c4ncccc34)n[nH]2)c(O)c1`, the IC50 was above 5 µM.

In the case of `O=C(NCc1nc(-c2ccncc2)n[nH]1)c1ccc2c(c1)OCO2`, the IC50 was above 5 µM. `Cc1cccc(C(=O)NCc2nc(-c3ccncc3)n[nH]2)c1` came in with an IC50 above 5 µM. For the compound `COc1ccc(Br)c(C(=O)NCc2nc(-c3ccncc3)n[nH]2)c1`, the IC50 was above 5 µM. Then `Cc1ccccc1OCC(=O)NCc1nc(-c2c[nH]c3ncccc23)n[nH]1`, with above 5 µM.

The compound `O=C(NCc1nc(-c2ccncc2)n[nH]1)c1cccc(I)c1` had an IC50 above 5 µM. Then `O=C(C=Cc1cccc(O)c1)NCc1nc(-c2ccncc2)n[nH]1`, with above 5 µM; and `O=Cc1ccccc1OCC(=O)NCc1nc(-c2ccncc2)n[nH]1`, with above 5 µM; and `O=C(NCc1nc(-c2c[nH]c3ncccc23)n[nH]1)c1cc(F)c(F)cc1Cl`, with above 5 µM. Compound `O=C(NCc1nc(-c2ccncc2)n[nH]1)c1ccc(OCc2ccccc2)cc1` returned an IC50 above 5 µM. Compound `Cc1ccc(O)c(C(=O)NCc2nc(-c3ccncc3)n[nH]2)c1` registered an IC50 above 5 µM. With `Cc1c(C(=O)NCc2nc(-c3ccncc3)n[nH]2)cccc1[N+](=O)[O-]`, the IC50 is above 5 µM. Then `O=C(NCc1nc(-c2ccncc2)n[nH]1)c1ccc(Cl)c(Br)c1`, with above 5 µM; and `Cc1ccc(C(=O)NCc2nc(-c3ccncc3)n[nH]2)cc1F`, with above 5 µM. For `Cc1cccc(C(=O)NCc2c[nH]c(-c3ccncc3)n2)c1O` the value was above 5 µM; for `CC(C)(C)C(=O)Oc1ccc(C(=O)NCc2nc(-c3ccncc3)n[nH]2)c(OC(=O)C(C)(C)C)c1`, above 5 µM; for `CN(C=O)c1ccc(C(=O)NCc2nc(-c3ccncc3)n[nH]2)cc1`, above 5 µM. For the compound `O=C(NCc1nc(-c2ccncc2)n[nH]1)c1c(F)cccc1F`, the IC50 was above 5 µM. Consider `CC(=O)NCc1nc(-c2c[nH]c3ncccc23)n[nH]1`, for which the IC50 was above 5 µM.

In turn, `COc1cccc(O)c1C(=O)NCc1nc(-c2ccncc2)n[nH]1` showed an IC50 of at most 5 µM. Then `O=C(NCc1nc(-c2ccncc2)n[nH]1)c1cc([N+](=O)[O-])ccc1Cl`, with above 5 µM. The compound `O=C(NCc1nc(-c2c[nH]c3ncccc23)n[nH]1)c1cc(F)c(F)c(O)c1F` returned an IC50 above 5 µM. For the compound `O=C(NCc1ncc(-c2ccncc2)s1)c1cccs1`, the IC50 is above 5 µM. With `O=C(NCc1nc(-c2ccncc2)n[nH]1)c1ccncc1-c1ccccc1`, the IC50 was above 5 µM. Take `CC(=O)NC(Cc1ccc(O)cc1)C(=O)NCc1nc(-c2c[nH]c3ncccc23)n[nH]1` (stereo not drawn): the IC50 was above 5 µM. `CC(C)(C)OC(=O)NC(Cc1ccc(O)cc1)C(=O)NCc1nc(-c2c[nH]c3ncccc23)n[nH]1` (stereo not drawn) gave a concentration for half-maximal inhibition (IC50) above 5 µM. Compound `O=C(NCc1nc(-c2c[nH]c3ncccc23)n[nH]1)c1ccc2cc(O)ccc2c1` came in with an IC50 above 5 µM. Take `O=C(NCc1nc(-c2ccncc2)n[nH]1)c1cc([N+](=O)[O-])ccc1O`: the half-inhibitory concentration (IC50) was above 5 µM. Take `O=C(NCc1nc(-c2ccncc2)n[nH]1)c1ccc(Cl)cc1[N+](=O)[O-]`: the IC50 was above 5 µM. Compound `O=C(NCc1nc(-c2ccncc2)n[nH]1)c1ccc([N+](=O)[O-])cc1Cl` registered an IC50 above 5 µM.

The compound `CC(C)(C)OC(=O)N1Cc2ccccc2CC1C(=O)NCc1nc(-c2c[nH]c3ncccc23)n[nH]1` (stereo not drawn) displayed a half-inhibitory concentration (IC50) above 5 µM. In the case of `O=C(NCc1nc(-c2ccncc2)n[nH]1)c1cccs1`, the half-inhibitory concentration (IC50) is at most 5 µM. `O=C(NCc1nc(-c2ccncc2)n[nH]1)c1cccc([N+](=O)[O-])c1`: the half-inhibitory concentration (IC50) is above 5 µM. Compound `O=C(NCc1nc(-c2c[nH]c3ncccc23)n[nH]1)c1ccc(Cl)c(Br)c1` had an IC50 above 5 µM. For `CC(C)(C)OC(=O)N1CCCC1C(=O)NCc1nc(-c2c[nH]c3ncccc23)n[nH]1` (stereo not drawn), the IC50 is above 5 µM. For the compound `COc1ccc(C(=O)NCc2nc(-c3c[nH]c4ncccc34)n[nH]2)cc1`, the IC50 was above 5 µM. Then `CC(NC(=O)OC(C)(C)C)C(=O)NCc1nc(-c2c[nH]c3ncccc23)n[nH]1` (stereo not drawn), with above 5 µM. Regarding `CC(C)(C)OC(=O)NC[C@H](NC(=O)c1ccc(O)cc1O)c1nc(-c2ccncc2)n[nH]1`, the concentration for half-maximal inhibition (IC50) was at most 5 µM. `O=C(NCc1nc(-c2ccncc2)n[nH]1)c1cc(Cl)ccn1` displayed an IC50 above 5 µM.

`O=C(C=Cc1ccccc1F)NCc1nc(-c2ccncc2)n[nH]1` registered an IC50 above 5 µM.

The compound `CCN(CC)c1ccc(C(=O)NCc2nc(-c3ccncc3)n[nH]2)cc1` came in with an IC50 above 5 µM. For `O=C(NCc1nc(-c2c[nH]c3ncccc23)n[nH]1)c1ccc(Cl)c([N+](=O)[O-])c1`, the IC50 was above 5 µM. The compound `O=C(NCc1nc(-c2c[nH]c3ncccc23)n[nH]1)c1ccccc1-c1ccccc1` displayed a half-inhibitory concentration (IC50) above 5 µM. For `Cc1cccc(C(=O)NCc2nc(-c3c[nH]c4ncccc34)n[nH]2)c1C` the value was above 5 µM; for `O=Cc1ccccc1OCC(=O)NCc1nc(-c2c[nH]c3ncccc23)n[nH]1`, above 5 µM; for `CC(C(=O)NCc1nc(-c2c[nH]c3ncccc23)n[nH]1)c1ccc(-c2ccccc2)c(F)c1` (stereo not drawn), above 5 µM. `O=C(NCc1nc(-c2ccncc2)n[nH]1)c1cc2cc(Cl)ccc2o1` had an IC50 above 5 µM. For the compound `CC(=O)Oc1cccc(C(=O)NCc2nc(-c3c[nH]c4ncccc34)n[nH]2)c1`, the IC50 is above 5 µM. Turning to `O=C(c1cccs1)N1CCn2nc(-c3ccncc3)nc2C1`, the IC50 was above 5 µM.

Compound `O=C(NCc1nc(-c2ccncc2)n[nH]1)c1ccc(F)cc1Cl` came in with an IC50 above 5 µM. In the case of `O=C(NCc1nc(-c2c[nH]c3ncccc23)n[nH]1)c1ccc(Oc2ccccc2)cc1`, the concentration for half-maximal inhibition (IC50) was above 5 µM. `O=C(NCc1nc(-c2ccncc2)n[nH]1)c1ccc(Oc2ccccc2)cc1` returned an IC50 of at most 5 µM.

Regarding `O=C(NCc1nc(-c2c[nH]c3ncccc23)n[nH]1)c1cccc(O)c1O`, the IC50 is above 5 µM. In turn, `O=C(NCc1nc(-c2c[nH]c3ncccc23)n[nH]1)c1ccccc1C(F)(F)F` had an IC50 above 5 µM. The compound `O=C(NCc1nc(-c2ccncc2)n[nH]1)c1c(Cl)cc(Cl)cc1Cl` came in with an IC50 above 5 µM. For the compound `CC1=NN(c2ccc(C(=O)NCc3nc(-c4ccncc4)n[nH]3)cc2)C(=O)C1`, the IC50 is above 5 µM. Compound `CS(=O)(=O)Nc1cccc(C(=O)NCc2nc(-c3ccncc3)n[nH]2)c1` returned an IC50 above 5 µM. For `Cc1ccc(SCC(=O)NCc2nc(-c3ccncc3)n[nH]2)cc1` the value was above 5 µM.

For `O=C(NCc1nc(-c2ccncc2)n[nH]1)c1cc(F)c(F)cc1[N+](=O)[O-]`, the IC50 was above 5 µM. In turn, `O=C(NCc1nc(-c2c[nH]c3ncccc23)n[nH]1)c1ccc(Oc2cccc(O)c2)cc1` gave an IC50 above 5 µM. For the compound `O=C(NCc1nc(-c2c[nH]c3ncccc23)n[nH]1)c1ccccc1C(=O)c1ccc(F)cc1`, the IC50 was above 5 µM. Consider `CC(C)(C)OC(=O)NC1CCN(C(=O)Cc2nc(-c3ccncc3)n[nH]2)C1` (stereo not drawn), for which the IC50 is above 5 µM. `O=C(NCc1nc(-c2c[nH]c3ncccc23)n[nH]1)c1cc(Cl)c(O)c(Cl)c1` had an IC50 above 5 µM. `Cc1cc(C)c(C(=O)NCc2nc(-c3ccncc3)n[nH]2)c(C)c1` came in with an IC50 above 5 µM.

`O=C(NCc1nnc(-c2ccnc3[nH]ccc23)o1)c1ccc(O)cc1O` came in with an IC50 of at most 5 µM. In the case of `O=C(Cc1cccc(O)c1)NCc1nc(-c2c[nH]c3ncccc23)n[nH]1`, the IC50 was above 5 µM.

In turn, `O=C(NCc1nc(-c2ccncc2)n[nH]1)c1cccc(F)c1` gave a concentration for half-maximal inhibition (IC50) above 5 µM.

The compound `O=C(NCc1nc(-c2ccncc2)n[nH]1)c1cc(O)ccc1O` showed an IC50 of at most 5 µM.

For the compound `CC(C)(C)C(=O)NCc1nc(-c2c[nH]c3ncccc23)n[nH]1`, the IC50 was above 5 µM. In the case of `O=C(NCc1nc(-c2ccncc2)n[nH]1)C1CCCN1C(=O)OCc1ccccc1` (stereo not drawn), the IC50 is above 5 µM. `CS(=O)(=O)Nc1ccc(C(=O)NCc2nc(-c3ccncc3)n[nH]2)cc1` showed an IC50 above 5 µM.

`O=C(NCc1nc(-c2ccncc2)n[nH]1)c1ccc2ncccc2c1` registered an IC50 above 5 µM. For `CC(C)(C)OC(=O)N1CCCCC1C(=O)NCc1nc(-c2ccncc2)n[nH]1` (stereo not drawn) the value was above 5 µM; for `COc1cc(Cl)ccc1C(=O)NCc1nc(-c2ccncc2)n[nH]1`, above 5 µM.

Compound `CC(C(=O)NCc1nc(-c2c[nH]c3ncccc23)n[nH]1)c1cccc(C(=O)OCc2ccccc2)c1` (stereo not drawn) came in with an IC50 above 5 µM. `O=Cc1ccc(C(=O)NCc2nc(-c3ccncc3)n[nH]2)cc1`: the IC50 is above 5 µM.

In turn, `O=C(NCc1nc(-c2ccncc2)n[nH]1)c1cc(F)c(Cl)cc1F` showed a concentration for half-maximal inhibition (IC50) above 5 µM.

As for `Cc1cc(C)cc(C(=O)NCc2nc(-c3c[nH]c4ncccc34)n[nH]2)c1`, the IC50 is above 5 µM.

The compound `O=C(NCc1nc(-c2c[nH]c3ncccc23)n[nH]1)C(Cl)(Cl)Cl` came in with an IC50 above 5 µM. Then `O=C(Cc1ccc(O)c(Cl)c1)NCc1nc(-c2c[nH]c3ncccc23)n[nH]1`, with above 5 µM. Then `CC(=O)Nc1cccc(C(=O)NCc2nc(-c3c[nH]c4ncccc34)n[nH]2)c1`, with above 5 µM; and `CC(C)CC(NC(=O)OC(C)(C)C)C(=O)NCc1nc(-c2c[nH]c3ncccc23)n[nH]1` (stereo not drawn), with above 5 µM. Compound `COC(=O)c1ccc(C(=O)NCc2nc(-c3c[nH]c4ncccc34)n[nH]2)cc1` registered an IC50 above 5 µM.

As to `O=C(CCc1cccc(C(F)(F)F)c1)NCc1nc(-c2ccncc2)n[nH]1`, the IC50 was at most 5 µM.
